≈ marks a conversion by molar mass, not a printed value.
Tests used:
[1] = test system: Mycolicibacterium smegmatis; test: Antimycobacterial activity was determined against Mycobacterium smegmatis SANK75075; assay type: functional
[2] = target: T1, Phospho-N-acetylmuramoyl-pentapeptide-transferase (Escherichia coli K-12, UniProt P0A6W3); test: Inhibitory concentration required against Translocase I
T1 sequence (P0A6W3 whole entry): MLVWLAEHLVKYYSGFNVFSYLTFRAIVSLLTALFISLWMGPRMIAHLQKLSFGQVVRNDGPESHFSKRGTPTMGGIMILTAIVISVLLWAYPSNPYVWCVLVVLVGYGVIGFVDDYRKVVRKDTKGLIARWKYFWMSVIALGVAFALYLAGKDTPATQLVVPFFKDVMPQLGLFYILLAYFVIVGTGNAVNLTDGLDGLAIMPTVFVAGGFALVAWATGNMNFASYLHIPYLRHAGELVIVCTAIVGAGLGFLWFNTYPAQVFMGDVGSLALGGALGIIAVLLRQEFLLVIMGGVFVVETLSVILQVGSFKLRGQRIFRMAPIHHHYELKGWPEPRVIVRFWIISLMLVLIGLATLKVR

[3] = test system: Mycobacterium avium; test: Antimycobacterial activity against Mycobacterium avium NIHJ1605; assay type: functional
[4] = test system: Mycobacterium intracellulare; test: Antimycobacterial activity against Mycobacterium intracellular ATCC 1954 E-3; assay type: functional
[5] = test system: Mycobacterium kansasii; test: Antimycobacterial activity against Mycobacterium kansasii ATCC 12478; assay type: functional

MIC [1] [µg/mL]	IC50 [2] [µM]	Compound	MIC [3] [µg/mL]	MIC [4] [µg/mL]	MIC [5] [µg/mL]
12.5 (≈ 16.6 µM)	1.86	CCCCCCCCCOC(=O)O[C@@H]1[C@H](OC)[C@@H]([C@@H](O[C@H]2OC(C(=O)N[C@H]3CCC[C@@H](C)NC3=O)=C[C@H](O)[C@@H]2O)C(N)=O)O[C@H]1n1ccc(=O)[nH]c1=O			
50 (≈ 70.3 µM)	0.183	CCCCCCOC(=O)O[C@@H]1[C@H](OC)[C@@H]([C@@H](O[C@H]2OC(C(=O)N[C@H]3CCC[C@@H](C)NC3=O)=C[C@H](O)[C@@H]2O)C(N)=O)O[C@H]1n1ccc(=O)[nH]c1=O			
		CO[C@H]1/C=C/O[C@@]2(C)Oc3c(C)c(O)c4c(O)c(c(/C=N/N5CCN(C)CC5)c(O)c4c3C2=O)NC(=O)/C(C)=C\C=C\[C@H](C)[C@H](O)[C@@H](C)[C@@H](O)[C@@H](C)[C@H](OC(C)=O)[C@@H]1C [RIFAMPIN]	0.125 (≈ 0.152 µM)	0.125 (≈ 0.152 µM)	0.25 (≈ 0.304 µM)
6.25 (≈ 7.39 µM)		CCCCC/C=C\C/C=C\CCCCCCCC(=O)O[C@@H]1[C@H](OC)[C@@H]([C@@H](O[C@H]2OC(C(=O)N[C@H]3CCC[C@@H](C)NC3=O)=C[C@H](O)[C@@H]2O)C(N)=O)O[C@H]1n1ccc(=O)[nH]c1=O			
		NNC(=O)c1ccncc1 [ISONIAZID]	1 (≈ 7.29 µM)	8 (≈ 58.3 µM)	2 (≈ 14.6 µM)
6.25 (≈ 7.37 µM)		CCCCCCCC/C=C\CCCCCCCC(=O)O[C@@H]1[C@H](OC)[C@@H]([C@@H](O[C@H]2OC(C(=O)N[C@H]3CCC[C@@H](C)NC3=O)=C[C@H](O)[C@@H]2O)C(N)=O)O[C@H]1n1ccc(=O)[nH]c1=O			
25 (≈ 36.4 µM)		CO[C@H]1[C@@H](OC(=O)c2ccccc2)[C@H](n2ccc(=O)[nH]c2=O)O[C@@H]1[C@@H](O[C@H]1OC(C(=O)N[C@H]2CCC[C@@H](C)NC2=O)=C[C@H](O)[C@@H]1O)C(N)=O			
25 (≈ 32.1 µM)	0.769	CCCCCCCCCCC(C)C(=O)O[C@@H]1[C@H](OC)[C@@H]([C@@H](O[C@H]2OC(C(=O)N[C@H]3CCC[C@@H](C)NC3=O)=C[C@H](O)[C@@H]2O)C(N)=O)O[C@H]1n1ccc(=O)[nH]c1=O (some centres not stated)			
50 (≈ 57.1 µM)		CCCCCCCC/C=C\CCCCCCCCCC(=O)O[C@@H]1[C@H](OC)[C@@H]([C@@H](O[C@H]2OC(C(=O)N[C@H]3CCC[C@@H](C)NC3=O)=C[C@H](O)[C@@H]2O)C(N)=O)O[C@H]1n1ccc(=O)[nH]c1=O			
50 (≈ 57.9 µM)		CCCCCCCCCCCCCCCCCCCC(=O)O[C@@H]1[C@H](OC)[C@@H]([C@@H](O[C@H]2OC(C(=O)N[C@H]3CCCCNC3=O)=C[C@H](O)[C@@H]2O)C(N)=O)O[C@H]1n1ccc(=O)[nH]c1=O			
50 (≈ 59.8 µM)		CCCCCCCCCCCCCCCCCC(=O)O[C@@H]1[C@H](OC)[C@@H]([C@@H](O[C@H]2OC(C(=O)N[C@H]3CCCCNC3=O)=C[C@H](O)[C@@H]2O)C(N)=O)O[C@H]1n1ccc(=O)[nH]c1=O			
50 (≈ 60.8 µM)		CCCCCCCCCCCCCCCCC(=O)O[C@@H]1[C@H](OC)[C@@H]([C@@H](O[C@H]2OC(C(=O)N[C@H]3CCCCNC3=O)=C[C@H](O)[C@@H]2O)C(N)=O)O[C@H]1n1ccc(=O)[nH]c1=O			
> 100	16.6	CCCCCCCCCCCCCCCCCCCCCC(=O)O[C@@H]1[C@H](OC)[C@@H]([C@@H](O[C@H]2OC(C(=O)N[C@H]3CCC[C@@H](C)NC3=O)=C[C@H](O)[C@@H]2O)C(N)=O)O[C@H]1n1ccc(=O)[nH]c1=O			
25 (≈ 32.9 µM)		CO[C@H]1[C@@H](OC(=O)C(C)c2ccc([N+](=O)[O-])cc2)[C@H](n2ccc(=O)[nH]c2=O)O[C@@H]1[C@@H](O[C@H]1OC(C(=O)N[C@H]2CCC[C@@H](C)NC2=O)=C[C@H](O)[C@@H]1O)C(N)=O (some centres not stated)			
25 (≈ 31.6 µM)		CO[C@H]1[C@@H](OC(=O)CC(c2ccccc2)c2ccccc2)[C@H](n2ccc(=O)[nH]c2=O)O[C@@H]1[C@@H](O[C@H]1OC(C(=O)N[C@H]2CCC[C@@H](C)NC2=O)=C[C@H](O)[C@@H]1O)C(N)=O			
25 (≈ 34.5 µM)	0.235	CCCCCCCCC(=O)O[C@@H]1[C@H](OC)[C@@H]([C@@H](O[C@H]2OC(C(=O)N[C@H]3CCC[C@@H](C)NC3=O)=C[C@H](O)[C@@H]2O)C(N)=O)O[C@H]1n1ccc(=O)[nH]c1=O			
> 100	9.41	CCCCCCCCCCCCCCCCCC(=O)O[C@@H]1[C@H](OC)[C@@H]([C@@H](O[C@H]2OC(C(=O)N[C@H]3CCC[C@@H](C)NC3=O)=C[C@H](O)[C@@H]2O)C(N)=O)O[C@H]1n1ccc(=O)[nH]c1=O			
100 (≈ 112 µM)		CCCCCCCCCCCCCCCCCCCCCC(=O)O[C@@H]1[C@H](OC)[C@@H]([C@@H](O[C@H]2OC(C(=O)N[C@H]3CCCCNC3=O)=C[C@H](O)[C@@H]2O)C(N)=O)O[C@H]1n1ccc(=O)[nH]c1=O			
6.25 (≈ 7.87 µM)	1.26	CCCCCCCCCCC(C)(C)C(=O)O[C@@H]1[C@H](OC)[C@@H]([C@@H](O[C@H]2OC(C(=O)N[C@H]3CCC[C@@H](C)NC3=O)=C[C@H](O)[C@@H]2O)C(N)=O)O[C@H]1n1ccc(=O)[nH]c1=O			
3.13 (≈ 3.71 µM)		CC/C=C\C/C=C\C/C=C\CCCCCCCC(=O)O[C@@H]1[C@H](OC)[C@@H]([C@@H](O[C@H]2OC(C(=O)N[C@H]3CCC[C@@H](C)NC3=O)=C[C@H](O)[C@@H]2O)C(N)=O)O[C@H]1n1ccc(=O)[nH]c1=O			
> 100		CCCCCCCC/C=C\CCCCCCCCCCCC(=O)O[C@@H]1[C@H](OC)[C@@H]([C@@H](O[C@H]2OC(C(=O)N[C@H]3CCC[C@@H](C)NC3=O)=C[C@H](O)[C@@H]2O)C(N)=O)O[C@H]1n1ccc(=O)[nH]c1=O			
> 100	34.2	CCCCCCCCCCCCCCCCCCCC(=O)O[C@@H]1[C@H](OC)[C@@H]([C@@H](O[C@H]2OC(C(=O)N[C@H]3CCC[C@@H](C)NC3=O)=C[C@H](O)[C@@H]2O)C(N)=O)O[C@H]1n1ccc(=O)[nH]c1=O			

Compound	MIC [1] [µg/mL]	IC50 [2] [µM]	MIC [3] [µg/mL]	MIC [4] [µg/mL]	MIC [5] [µg/mL]
CCCCCCO[C@@H]1[C@H](OC)[C@@H]([C@@H](O[C@H]2OC(C(=O)N[C@H]3CCC[C@@H](C)NC3=O)=C[C@H](O)[C@@H]2O)C(N)=O)O[C@H]1n1ccc(=O)[nH]c1=O	50 (≈ 74.9 µM)	0.0599	32 (≈ 47.9 µM)	4 (≈ 5.99 µM)	32 (≈ 47.9 µM)
CCCCCCCCCCCCCC(=O)O[C@@H]1[C@H](OC)[C@@H]([C@@H](O[C@H]2OC(C(=O)N[C@H]3CCC[C@@H](C)NC3=O)=C[C@H](O)[C@@H]2O)C(N)=O)O[C@H]1n1ccc(=O)[nH]c1=O	3.13 (≈ 3.94 µM)	5.67	< 0.063	0.125 (≈ 0.157 µM)	4 (≈ 5.04 µM)
CO[C@H]1[C@@H](O)[C@H](n2ccc(=O)[nH]c2=O)O[C@@H]1[C@@H](O[C@H]1OC(C(=O)Nc2ccccc2)=C[C@H](O)[C@@H]1O)C(N)=O	6.25 (≈ 11.7 µM)	0.0122	16 (≈ 29.9 µM)	4 (≈ 7.48 µM)	8 (≈ 15 µM)
CCCCCCCCCCCCCCCC(=O)O[C@@H]1[C@H](OC)[C@@H]([C@@H](O[C@H]2OC(C(=O)Nc3ccccc3)=C[C@H](O)[C@@H]2O)C(N)=O)O[C@H]1n1ccc(=O)[nH]c1=O	12.5 (≈ 16.2 µM)	> 3.23	2 (≈ 2.59 µM)	16 (≈ 20.7 µM)	32 (≈ 41.4 µM)
CCCCCCCCCCCCCCC(=O)O[C@@H]1[C@H](OC)[C@@H]([C@@H](O[C@H]2OC(C(=O)N[C@H]3CCC[C@@H](C)NC3=O)=C[C@H](O)[C@@H]2O)C(N)=O)O[C@H]1n1ccc(=O)[nH]c1=O	6.25 (≈ 7.74 µM)	2.97	0.125 (≈ 0.155 µM)	0.25 (≈ 0.309 µM)	4 (≈ 4.95 µM)
CCCCCCCCCCO[C@@H]1[C@H](OC)[C@@H]([C@@H](O[C@H]2OC(C(=O)N[C@H]3CCC[C@@H](C)NC3=O)=C[C@H](O)[C@@H]2O)C(N)=O)O[C@H]1n1ccc(=O)[nH]c1=O	25 (≈ 34.5 µM)	0.884	1 (≈ 1.38 µM)	4 (≈ 5.53 µM)	> 32
CCCCCCCCCCCC(=O)O[C@@H]1[C@H](OC)[C@@H]([C@@H](O[C@H]2OC(C(=O)N[C@H]3CCCCNC3=O)=C[C@H](O)[C@@H]2O)C(N)=O)O[C@H]1n1ccc(=O)[nH]c1=O	3.13 (≈ 4.16 µM)		< 0.063	0.125 (≈ 0.166 µM)	0.125 (≈ 0.166 µM)
CCCCCCCCCCCCCCCCC(=O)O[C@@H]1[C@H](OC)[C@@H]([C@@H](O[C@H]2OC(C(=O)N[C@H]3CCC[C@@H](C)NC3=O)=C[C@H](O)[C@@H]2O)C(N)=O)O[C@H]1n1ccc(=O)[nH]c1=O	> 100		2 (≈ 2.39 µM)	8 (≈ 9.57 µM)	4 (≈ 4.78 µM)
CCCCCCCCCC(=O)O[C@@H]1[C@H](OC)[C@@H]([C@@H](O[C@H]2OC(C(=O)N[C@H]3CCC[C@@H](C)NC3=O)=C[C@H](O)[C@@H]2O)C(N)=O)O[C@H]1n1ccc(=O)[nH]c1=O	6.25 (≈ 8.47 µM)		< 0.063	< 0.063	< 0.063
CCCCCCCCCCCCCC(=O)O[C@@H]1[C@H](OC)[C@@H]([C@@H](O[C@H]2OC(C(=O)N[C@H]3CCCCNC3=O)=C[C@H](O)[C@@H]2O)C(N)=O)O[C@H]1n1ccc(=O)[nH]c1=O	1.56 (≈ 2 µM)		2 (≈ 2.56 µM)	1 (≈ 1.28 µM)	4 (≈ 5.13 µM)
CO[C@H]1[C@@H](O)[C@H](n2ccc(=O)[nH]c2=O)O[C@@H]1[C@@H](O[C@H]1OC(C(=O)N[C@H]2CCC[C@@H](C)NC2=O)=C[C@H](O)[C@@H]1O)C(N)=O	6.25 (≈ 10.7 µM)		8 (≈ 13.7 µM)	4 (≈ 6.85 µM)	16 (≈ 27.4 µM)
CCCCCCCCCCCCCCC(=O)O[C@@H]1[C@H](OC)[C@@H]([C@@H](O[C@H]2OC(C(=O)N[C@H]3CCCCNC3=O)=C[C@H](O)[C@@H]2O)C(N)=O)O[C@H]1n1ccc(=O)[nH]c1=O	3.13 (≈ 3.94 µM)		2 (≈ 2.52 µM)	1 (≈ 1.26 µM)	4 (≈ 5.04 µM)
CCCCCCCCCCCCCCCC(=O)O[C@@H]1[C@H](OC)[C@@H]([C@@H](O[C@H]2OC(C(=O)N[C@H]3CCCCNC3=O)=C[C@H](O)[C@@H]2O)C(N)=O)O[C@H]1n1ccc(=O)[nH]c1=O	1.56 (≈ 1.93 µM)		1 (≈ 1.24 µM)	2 (≈ 2.48 µM)	4 (≈ 4.95 µM)

From ChEMBL document CHEMBL1136175, “Synthesis and antimycobacterial activity of capuramycin analogues. Part 2: acylated derivatives of capuramycin-related compounds” (Bioorg Med Chem Lett, 2003)
